Format in all cases: in vivo, Arabidopsis thaliana
One assay concerns DR5-GFP V2. Description: DR5-GFP V2 auxin response reporter in roots. The source says:
(§1) LaserMicroscopy. A Zeiss 710 confocal microscope with 20×, 40×, and 63× objectives were used to detect GFP and propidium iodide (PI) fluorescence. A Keyence BZ-X810 microscope with a 20× objective was used to detect bright field images and GFP fluorescence in FIG. 3B, FIG. 8B right panel, FIG. 9C, FIG. 9F.

For another assay, the system named is Arabidopsis roots. Description: mRNA-seq of roots, differential expression and GO analysis. On the procedure:
mRNA-seq analysis. 14 d old seedlings on DMSO plates were transferred to 12 MS liquid plates with DMSO or 10 μM mebedazole treatment for 4 h, root tissues were collected for RNA extraction and RNA-seq.
Read alignment and generation of counts. The TAIR10 genome file and annotation file were obtained from the Arabidopsis Information resource web site (arabidopsis.org). The An aligner, called the Splice Transcripts Alignments to Reference (STAR) version 2.7.0a^44, was used to align short reads in the FASTQ files. In order to use STAR, a STAR index was built using the following parameters:
Then, short reads in the FASTQ files were aligned and gene counts were obtained using the following STAR command:
A custom R script was used to combine counts per gene from count data produced from STAR cross all samples.
Differential expression analysis. Differential expression of genes between treatments and control was determined using the R package, edgeR (version 3.36.0) (Robinson et al., 2010). The CPM (counts per million) function from edgeR was used to normalize the counts and differentially expressed genes (DEGs) were identified using glmLRT function from edgeR.
Analysis of published Ethylene RNA-Seq. The fastq-dump utility from the Short Read Archive (SRA) Toolkit (v2.6.3) (github.com/ncbi/sra-tools) was used to download transcriptome libraries (SRA accession IDs: SRR648276, SRR648275, SRR648274, SRR648300, SRR648299, and SRR648298) from SRA database (ncbi.nlm.nih.gov/sra) (Leinonen et al., 2011). The color space sequencing data were converted to base-space sequencing data using Perl script ‘csfq2fq.pl’ (gist.github.com/pcantalupo/9c30709fe802c96ea2b3). The converted FASTQ files were aligned and analyzed using above methods.
Statistical analysis. A two-sided Student's t-test was used for comparisons of two conditions. The comparison of meristem length, mature cell length, root length, GSA between multiple treatments or genotypes was performed by One-way ANOVA and post hoc Tukey testing. Detailed information was prepared in figure legends. Statistical significance of overlap between DEGs from MBZ treatment and ethylene treatment was assessed by hypergeometric distribution test. Hypergeometric test function in R was used to calculate statistical significance: • $ phyper(q−1, m, n-m, k, lower.tail=FALSE, log.p=FALSE) • q=the number of genes in common between two sets • m=the number of genes in Set 1; • n=the total number of genes in RNA-Seq counts table (33,602) • k=the number of genes in Set 2

The subject of the next assay is EIN3. Put plainly: 35S-EIN3-GFP protein level in ein3eil1 background. The conditions noted are these: 2 hours, 10 μM MBZ or 50 μM ACC.
Description: as §1

The test system of assay [1] is Arabidopsis lateral roots. Put plainly: Time lapse of lateral root angle phenotyping after plate transfer. How it is done: Time lapse of lateral root angle phenotyping. […] Root phenotype images of these plates were acquired by CCD vertical scanners (EPSON Perfection V600 Photo, Seiko Epson CO., Nagano, Japan) every 10 mins over a period of 24 hours using the tool described (Ogura et al., 2022). Root length and lateral root angles were measured using Fiji.

The structures appear in SMILES notation.

`COC(=O)Nc1nc2ccc(C(=O)c3ccccc3)cc2[nH]1` [MBZ, Mebendazole]: the “DR5-GFP V2 expression within 3 hours compared to mock” value in the assay on DR5-GFP V2 (10 μM MBZ, 3 h) was “no increased”. The “DR5-GFP V2 expression, long-term treatment” value with DR5-GFP V2 (7-day-old roots grown on 1 μM MBZ plates) is on record as “induced”. In the assay on Arabidopsis roots (10 μM MBZ, 4 hours), the “GO enrichment of ethylene-activated signaling pathway (GO:0009873)” value is on record as 10.83 fold enrichment and the “GO enrichment of negative regulation of ethylene-activated signaling pathway (GO:0010105)” value came to 21.03 fold enrichment. Moreover, in the assay with Arabidopsis roots (4 hours of MBZ treatment), the “number of differentially expressed genes (DEGs)” value came out at 1335 genes. Also, the “DEGs overlapping with DEGs of 4 hours ethylene treatment” value in the assay on Arabidopsis roots (4 hours of MBZ treatment vs published ethylene data) turned out to be 306 genes. Moreover, the “common DEGs retaining directionality of expression change” value with Arabidopsis roots (MBZ vs ethylene, 4 h) is recorded as “More than 90%”. In the assay with EIN3, the 35S-EIN3-GFP protein level result was “dramatically induced”. Besides, in assay [1] (1 μM MBZ, removal), the “reversibility of effect on lateral root angles” value is given as “fully reversible”. Also, the “time to change of GSA in time-lapse experiment” value in assay [1] (MBZ treatment) is listed as “one to four”. For the same compound, the “time until lateral root tips grow at a distinctly steeper angle upon removal from MBZ” value in assay [1] (transfer from 1 μM MBZ back to control conditions, 5 lateral root tips) is reported as “four”. The “time until lateral root tips grow at a more horizontal angle” value in assay [1] (transfer from DMSO to 1 μM MBZ medium, five lateral root tips) is reported as “three”.

The values are drawn from US20250049032A1, “ETHYLENE SIGNALING ACTIVATOR MODULATES ROOT SYSTEM ARCHITECTURE” (Salk Institute for Biological Studies, priority 2021, published 2025).
